Here are results for 5 compounds from patent US9433616B2, “Methods and compositions for decreasing saliva production” (priority 2005, dated 2016).

Series [1] relates to salivation in patients with Parkinson's disease. The following applies: in vivo; cited from earlier work.
Series [2] relates to muscarinic receptors in the muscles of the eye. The following applies: cited from earlier work.
In series [3] the test system is excessive sialorrhea in children with developmental disabilities. As to conditions: cited from earlier work.
Series [4] deals with clozapine-induced sialorrhea. The following applies: in vivo; cited from earlier work.
Series [5] relates to salivary drying in healthy volunteers. The following applies: in vivo.
Description: The time of first noticeable dryness in the mouth and the time to complete disintegration of the film were noted. Comments about adverse events, taste, and tolerance were also recorded by the participants.
The secondary aims of this study were to determine: time of first noticeable dryness in the mouth, time to complete disintegration of the film, and the acceptability and tolerance of the bioadhesive buccal films by the subject.
A blinded randomized crossover study in healthy volunteers.
In each treatment, the product was blind labeled.
A thin film was removed from an individually wrapped pouch and placed in the inner cheek opposite the molars nearest to the submandibular gland. It was positioned with the fingers and the mucoadhesive property facilitated its adhesion.
Dissolve period: the dissolve period of the film was noted. It was defined as the time after which the film was no longer felt in the oral cavity.
The volunteer recorded the tolerance to the buccal mucosa and overall feel during testing.
Series [6] deals with Parkinson's Disease (PD) patients suffering from sialorrhea. As to conditions: human, in vivo. From the text: They were instructed to apply the drops to their tongues on an as needed basis.
Series [7] relates to dryness of the mouth in human subjects. The following applies: in vivo. Here is the method:
This was an evaluation of the placebo and drug-containing disks conducted in a closed room while sitting and carrying on an otherwise normal conversation.
No food or drink intake for approximately 2 hours before test. One disk was inserted in the mouth between gum and cheek on the lower right quadrant of mouth.
All sat in a comfortable room and had not eaten for at least one hour before.

Series [8] concerns sialorrhea in PD patients. As to conditions: human, in vivo.
The subject of series [9] is Parkinson's Disease (PD) patients complaining of sialorrhea. The following applies: human, in vivo, po. Here is the method:
The aim was to assess personal impression by the patients of their sialorrhea symptoms, including, drooling, speech performance, and social interference, as well as the presence of side effects, such as blurred vision, confusion, somnolence, tachycardia, hypotension, or any other discomforting sensation. The patients were evaluated for 2 hours in an outpatient clinic while resting in comfortable armchairs. They rated themselves on a visual analog scale by marking a line representing the amount of disability incurred by their sialorrhea both before and after the treatment by responding to the question: “How would you grade the effect of the drops that you were administered on your sialorrhea?”
The patients were fluctuating PD patients evaluated in the ON state in the morning, having eaten no food for one hour before the test. […] The patients were instructed to perform some chewing like movements in order to distribute the drug homogeneously. The patients were instructed to fill the visual-analogical scale 1 hour after drug intake. In addition, they were asked about the latency of the effect, if any, and if the effect persisted before leaving.

SMILES strings stand for the structures.

Consider `CN1[C@@H]2CC[C@H]1C[C@@H](OC(=O)C(CO)c1ccccc1)C2` (stereo partly shown) [atropine], for which, in series [1], the “effect after 30 minutes” value is “No effect was noted” and the “time results first observed after initial treatment” value is recorded as “three”. Further, the “time of peak mydriasis effect” value in series [2] (in vivo) was 30 to 40 min.
As to `CN(C)CCOC(=O)C(c1ccccc1)C1(O)CCCC1` (stereo not shown) [cyclopentolate], in [2] (eye drops, some effects may persist for up to several days), the duration of effect is 8 h.
Consider `C[N+]1(C)CCC(OC(=O)C(O)(c2ccccc2)C2CCCC2)C1` (stereo not drawn) [glycopyrrolate, 3-(α-cyclopentylmandeloy(osy)-1,1-dimethylpyrrolidinium bromide], for which the “control of excessive sialorrhea” value in series [3] was “effective”. In addition, the “treated individuals with substantial adverse systemic side effects requiring discontinuation” value in series [3] (systemic administration) was “approximately 20%”.
Regarding `CC(C)[N+]1(C)[C@@H]2CC[C@H]1C[C@@H](OC(=O)C(CO)c1ccccc1)C2` (stereo partly shown) [ipratropium], in series [4], the clinical response result is listed as “partial yet clinically meaningful response” and the “time until effect of the spray wore off” value is 2 to 8 h.
For the compound `CCN(Cc1ccncc1)C(=O)C(CO)c1ccccc1` (stereo not shown) [tropicamide, N-ethyl-N-(4-pyridylmethyl) tropamide], the tolerance entry in series [5] was “acceptable”. The taste tolerance entry in series [6] is given as “complained of the taste of the medication”. Also, the “time local numbness first noticed” value in [7] (human) turned out to be 20 min. In addition, the “change in pupil size” value in series [7] is listed as “no obvious change in pupil size”. In addition, the side effects entry in series [8] was “No side effects were observed”. Further, in series [9], the “effect on heart rate (tachycardia), confusion, somnolence” value is “did not affect heart rate (cause tachycardia), confusion, or somnolence”; the photosensitivity complaints result is “No complaint of photosensitivity”; the “side effects or complications” value is reported as “None of the patients developed side effects or complications”.
